Assay results from US9814758B2, “Inhibitors of apoptosis and uses thereof” (CENTRE NATIONAL DE LA RECHERCHE SCIENTIFIQUE-CNRS, priority 2010, dated 2017).
“Also recorded” adds a separate entry of the source. No end group written: not given here.

Columns and labels:
primary cardiomyocytes = assay: STS-induced DNA fragmentation (Cell Death detection ELISA PLUS) in primary cardiomyocytes; type: cell-based, mouse; conditions: for ability to decrease cell apoptosis / protect the cells: against STS; for reduction of DNA fragmentation: peptide given together with staurosporine, 1 μM, related to STS-treated cells (=100%), FIG. 5B
Protocol: FIG. 5: In vitro evaluation of the anti-apoptotic activity of CPPs and CPP-conjugates. Workflow and quantitation of DNA fragmentation in (A) C2C12 cells, (B) primary cardiomyocytes, (C) H9c2 cells and (D) NG108-15 cells. Data were normalized to 100% STS. Data shown are the means±SEM, with n≧5. Cells were seeded in 24-well plates and grown overnight. The next day, the cells were incubated with STS alone or with STS+1 μM peptide (in OPTI-MEM) (OPTI-MEM® is a modification of Eagle's Minimum Essential Media, buffered with HEPES and sodium bicarbonate, and supplemented with hypoxanthine, thymidine, sodium pyruvate, L-glutamine, trace elements, and growth factors) (STS concentration and incubation time for each cells are given in the figure). Thereafter, solutions were removed, replaced by complete medium and further incubated for 40 h. Following the regeneration phase, the cells were lyzed and DNA fragmentation was detected according to manufacturer's instructions (Cell Death detection ELISA^PLUS kit—Roche Diagnostics).
FIG. 6: Anti-apoptotic activity of variants of the Tat-DAXXp sequence on primary cardiomyocytes. As described in the caption of FIG. 5, the different analogues of the DAXXp sequence (see Table 2) were assessed for anti-apoptotic properties against STS (Cell Death detection ELISA^PLUS kit—Roche Diagnostics) (A-B). None of the analogues were able to protect the primary cardiomyocytes—a fact which confirms that the 16mer DAXXp has the optimal length and sequence for highest cardioprotective effect.
FIG. 7: Comparison of the murine/rat DAXXp with the human DAXXp sequence in terms of anti-apoptotic activity on C2C12 cells, primary cardiomyocytes, and H9c2. The murine DAXXp sequence conjugated to Tat (Tat-mDAXXp—SEQ ID NO: 61) which is identical to the rat DAXXp sequence (see FIG. 1B), was compared to the human construct (Tat-DAXXp) in terms of anti-apoptotic properties against STS (Cell Death detection ELISA^PLUS kit—Roche Diagnostics). The C2C12 cells and the primary cardiomyocytes used were from mice and the H9c2 cells from rat.
FIG. 9: Comparison of FADDp constructs with Tat-DAXXp in terms of anti-apoptotic activity in primary cardiomyocytes and in H9c2 cells. Quantification of DNA normalized to 100% STS. Data shown are the means±SEM, with n≧5. Cells were seeded in 24-well plates and grown overnight. The next day, the cells were incubated with STS alone or with STS+1 μM peptide (in OPTI-MEM®) (OPTI-MEM® is a modification of Eagle's Minimum Essential Media, buffered with HEPES and sodium bicarbonate, and supplemented with hypoxanthine, thymidine, sodium pyruvate, L-glutamine, trace elements, and growth factors) (STS concentration is given in the figure and incubation time is given in FIG. 5). Thereafter, solutions were removed, replaced by complete medium and further incubated for 40 hours. Following the regeneration phase, the cells were lyzed and DNA fragmentation was detected according to manufacturer's instructions (Cell Death detection ELISA^PLUS kit—Roche Diagnostics).
FIG. 10: Comparison of Tat-DAXXp and Tat-FADDp15 alone and in combination in primary cardiomyocytes (A) and in H9c2 cells (B).
Thereafter, the capacity of these peptides to inhibit apoptosis induced by staurosporine was evaluated. Apoptosis was determined using the Cell Death detection ELISA^PLUS kit (Roche) measuring the DNA fragmentation.
In most publications, anti-apoptotic peptides currently available in the art are administrated 3-4 hours prior to apoptosis induction, which is poorly relevant to a clinical application. For that reason, the protocol used in the present study included administration of the peptides together with the staurosporine. […] This was not observed with CPP alone or with the Tat-scrDAXXp or Tat-ncDAXXp negative controls. […] To better compare the results, the DNA fragmentation (described by the enrichment factor) is related to the staurosporine-treated cells (=100%).

[1] = target: T1, His-tagged intracellular region of Fas receptor (Homo sapiens, UniProt P25445); assay: SPOT peptide array, enzyme-linked blot with His-tagged Fas; type: binding; conditions: Fas 10 μg/ml, anti-His/anti-mouse-HRP
T1 construct: His-tagged intracellular region of Fas receptor [10 μg/ml]; purchased Sigma
T1 sequence (P25445 191-335 limits assumed): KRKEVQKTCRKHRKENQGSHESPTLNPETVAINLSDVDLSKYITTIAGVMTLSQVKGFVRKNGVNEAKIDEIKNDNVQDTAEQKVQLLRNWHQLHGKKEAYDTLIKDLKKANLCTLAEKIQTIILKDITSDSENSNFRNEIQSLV
Protocol: FIG. 1: Determination of the DAXX epitope by SPOT synthesis. (A) The amino acid sequence of DAXX was dissected in overlapping peptide arrays (pepscan; 15 mer peptides with a shift of 3 amino acids) and analyzed in enzyme-linked blot. […] Incubation conditions: His-tagged intracellular region of Fas receptor [10 μg/ml]; antibodies: anti-His-(mouse) (Sigma H1029; 1:6,000)/anti-mouse-HRP (Calbiochem 401207; 1:2,000), exposure time: 1 minute. (B) Alignment of the human DAXX sequence comprising the 16-mer KKSRKEKKQTGSGPLG (=DAXXp of SEQ ID NO: 5) with the DAXX sequences of other species (mouse, rat, dog (CANFA) and green monkey (CHLAE)).
FIG. 2: Determination of the optimal length of the DAXX epitope (=DAXXp) by SPOT synthesis. (A) The DAXXp-211 and DAXXp-209 peptides (of SEQ ID NO: 2 and SEQ ID NO: 3, respectively) were successively shortened by one amino acid residue at the N-terminus, at the C-terminus and both at the N- and the C-termini, and analyzed using enzyme-linked blot. […] Incubation conditions: His-tagged intracellular region of Fas receptor [10 μg/ml]; antibodies: anti-His-(mouse) (Sigma H1029; 1:6,000)/anti-mouse-HRP (Calbiochem 401207; 1:2,000), exposure time: 1 minute. (B) Alignment of both peptide sequences DAXXp-211 and DAXXp-209; corresponding to the brightest spots, to determine the optimal DAXX peptide sequence.
FIG. 8: Determination of FADDp15 and its anti-apoptotic effect in cardiomyocytes. (A) The protein sequences of FADD were dissected in overlapping peptide arrays (pepscan; 15 mer peptides with a shift of 3 amino acids) and analyzed using enzyme-linked blot. […] (B) The peptide sequence of FADDp-11 (=FADDp15=SEQ ID NO: 9) was successively shortened by one amino acid residue at the C-terminus, the N-terminus, or at both the C-terminus and the N-terminus, and analyzed using enzyme-linked blot. […] The shortest FADD epitope (a 9-mer with sequence KRKLERVQS (=FADDp=SEQ ID NO: 12)) corresponded to spot No. 24. Incubation conditions: His-tagged intracellular region of Fas receptor [10 μg/ml]; antibodies: anti-His-(mouse) (Sigma H1029; 1:6,000)/anti-mouse-HRP (Calbiochem 401207; 1:2,000), exposure time: 1 minute.
The peptides were synthesized on N-modified CAPE-membranes (Bhargava et al, Mol. Recognit, 2002, 15: 145) and prepared by a MultiPep SPOT-robot (INTAVIS Bioanalytical Instruments AG, Cologne, Germany). Array design was performed with the aid of the in-house software LISA 1.71. The synthesis started with spot definition using a standard protocol [Frank, Tetrahedron, 1992, 48: 9217), followed by the coupling of a solution of Fmoc-cysteine-(Trt)-Opfp (0.3M) in N-methylpyrolidone (NMP) and Fmoc-alanine-Opfp (double coupling, 15 min reaction each). After Fmoc cleavage with piperidine in DMF (20%), 4-hydroxymethylphenoxyacetic acid (HMPA) dissolved in dimethylformamide (DMF, 0.6M solution) and activated with EEDQ (1.1 equiv) was added, and samples were directly spotted on the membrane (4× coupling, 15 min reaction each). The membrane was acetylated with acetic anhydride in DMF (2%), washed with DMF (5×3 min), ethanol (2×3 min), and diethyl ether (2×3 min), and finally air dried. Solutions of Fmoc-amino acid-OH (0.4M) activated with 1,1′-carbonyldiimidazole (CDI, 3 equiv) in DMF were spotted on the membrane (4× coupling, 15 min reaction time each). Proline, tyrosine, and glutamine were activated with 1,1′-carbonyldi(1,2,4-triazole) (CDT). The Fmoc group was removed from the spots, and the peptide sequences were completed using the standard SPOT synthesis protocol (Frank, Tetrahedron, 1992, 48: 9217) followed by a N-terminal tag with β-alanine.
The primary sequence of the DAXX protein (SEQ ID NO: 1) was dissected in overlapping 15 mer peptides (3 amino acids shift) and all the peptides (243 peptides) were synthesized on cellulose membrane by SPOT synthesis as described above. The peptide library was incubated with the His-tagged intra-cellular region of the Fas receptor (Sigma). […]

[2] = test system: C57Bl6 mice, myocardial ischemia-reperfusion; assay: Myocardial ischemia-reperfusion IR60' (40 min ischemia, 60 min reperfusion); type: in vivo, mouse; conditions: IR60'; data not shown
Protocol: FIG. 11: In vivo experimental protocol. C57Bl6 mice underwent a surgical protocol of myocardial ischemia-reperfusion (IR). The black box represents the period of ischemia to which the mice were submitted. Infarct size or cell death measurements were performed at the end of surgery for each protocol (indicated by ↑). IR60′: 40 minutes of Ischemia, 60 minutes of Reperfusion. IR24h: 40 minutes Ischemia and 24 hours Reperfusion.
FIG. 12: Cardioprotective effects of Tat-DAXXp (1 mg/kg—IV) in mice subjected to IR60′. Infarct size (in % of area at risk) and internucleosomal DNA fragmentation determined by ELISA were quantified in mice subjected to IR60′ and treated with Tat, Tat-DAXXp or Tat-scrDAXXp (1 mg/kg) as well as with DAXXp (10 mg/kg) (intravenous injection (IV) 5 minutes before reperfusion). Means±SEM were plotted for (A): Area at risk/LV mass (left ventricle), (B): Infarct size (in % of area at risk) and (C): (I/NI ratio) corresponding to the ratio of soluble nucleosome in the ischemic portion versus the non-ischemic portion of LV tissues. Statistical analysis was performed using One-way ANOVA with Neuman-Keuls post test for multiple comparisons (GraphPad Prism software). P<0.05, P<0.01 and P<0.001 versus Tat-DAXXp were noted *, **, and *** respectively. P=ns (not significant) for P>0.05.
FIG. 13: Dose response for Tat-DAXXp and DAXXp in mice subjected to IR60′. Infarct size (in % of area at risk) and internucleosomal DNA fragmentation determined by ELISA were quantified in mice subjected to IR60′ and treated with Tat (1 mg/kg), Tat-DAXXp (0.1, 1 and 10 mg/kg) or DAXXp (0.1, 1 and 10 mg/kg) injected intravenously 5 minutes before reperfusion. Means±SEM were plotted for (A): Area at risk/LV mass (left ventricle), (B): Infarct size (in % of area at risk) and (C): (I/NI ratio) corresponding to the ratio of soluble nucleosome in the ischemic versus the non-ischemic portion of LV tissues.
In a second step, the cardioprotective effects of DAXXp were evaluated in an in vivo model of myocardial ischemia-reperfusion. Acute myocardial ischemia and reperfusion were performed in C57Bl6 mice subjected to a surgical model of reversible coronary occlusion. Male mice (22-28 g) were anesthetized and ventilated via a tracheal intubation using a Harvard rodent respirator. Body temperature was maintained between 36.8° C. and 37.0° C. via a thermo-regulated surgical table. The chest was opened by left lateral thoracotomy and a reversible coronary artery snare occluder was placed around the left coronary artery. Mice were randomly allocated to two different surgical protocols of myocardial ischemia-reperfusion (FIG. 11). At the end of reperfusion, the artery was re-occluded and phtalocyanine blue dye was injected into the left ventricle cavity and allowed to perfuse the non-ischemic portions of the myocardium. To determine the effect of DAXXp on myocardial infarct size, peptides were administered intravenously (caudal vein) 5 minutes before reperfusion during the surgical protocol of ischemia-reperfusion. The control groups were treated with Tat or Pip2b peptide (for CPP alone). The dose of 1 mg/kg was chosen (μmolar range) and dose responses for 0.1 and 10 mg/kg were also tested.
At the end of reperfusion, mice were re-anaesthetized, the coronary ligature definitively tightened, the blue dye injected and the harvested left ventricles were dedicated to infarct size (TTC method, Schwartz et al, J Thromb. Thromb., 2000; 10: 181-187) or DNA fragmentation measurements (Cell death detection ELISA^PLUS kit, Roche Diagnostics) in order to investigate the cardioprotective effects against ischemia-reperfusion injuries.

| Substance | interaction with the Fas receptor / signal intensity of the spot [1] | interaction with the Fas receptor / signal intensity of the spot ([1]; listed as Spot No. 211) | ability to decrease cell apoptosis / protect the cells (primary cardiomyocytes) | reduction of DNA fragmentation (primary cardiomyocytes) | cardioprotection (infarct size, DNA fragmentation) [2] |
| --- | --- | --- | --- | --- | --- |
| GRKKRRQRRRPPQ-AKLYVYINELCTVLK-NH2 [Tat-ncDAXXp] | – | – | – | not observed | – |
| GRKKRRQRRRPPQ-KKGRKQSGESLGTPKK-NH2 (GRKKRRQRRRPPQKKGRKQSGESLGTPKK-NH2) [Tat-scrDAXXp, negative control; scrambled version of DAXXp conjugated to Tat] | – | – | – | not observed | not observed |
| VGKRKLERVQSGLDL (listed as Homo sapiens) [FADDp15] | higher signal intensity; also recorded: interact with the Fas receptor | – | decrease cell apoptosis | – | – |

The next lines start with results.

| interaction with the Fas receptor / signal intensity of the spot [1] | interaction with the Fas receptor / signal intensity of the spot ([1]; listed as Spot No. 211) | Substance | ability to decrease cell apoptosis / protect the cells (primary cardiomyocytes) | reduction of DNA fragmentation (primary cardiomyocytes) | cardioprotection (infarct size, DNA fragmentation) [2] |
| --- | --- | --- | --- | --- | --- |
| interact with the Fas receptor | – | DAXXp-14: fragment of the DAXX protein, amino acid sequence set forth in SEQ ID NO: 6 (SRKEKKQTGSGPLG; listed as Homo sapiens) | only DAXXp is capable of decreasing cell apoptosis | – | – |
| interact with the Fas receptor | – | KRKLERVQS (listed as Homo sapiens) [FADDp] | decrease cell apoptosis | – | – |
| interact with the Fas receptor | highest signal intensity | KSRKEKKQTGSGPLG (listed as Homo sapiens) [DAXXp-15] | only DAXXp is capable of decreasing cell apoptosis | – | – |
